Measured values taken from ChEMBL document CHEMBL1154355, “Identification of the bioactive constituent and its mechanisms of action in mediating the anti-inflammatory effects of black cohosh and related Cimicifuga species on human primary blood macrophages” (2009).
The source made the active and inactive calls. No cut-off for these calls is given here.

Columns and labels:
PBMC [1] = assay: Inhibition of LPS-induced NFkappaB p65 subunit translocation into nucleus in human PBMC at 140 uM pretreated 24 hrs before inducer-challenge measured 15 mins after LPS addition by Western blot; format: functional, cell-based
[2] = target: MAP kinase p38 (Homo sapiens) (UniProt O15264+Q15759+Q16539+P53778); assay: Inhibition of LPS-induced p38 MAPK phosphorylation in human PBMC at 140 uM pretreated 24 hrs before inducer-challenge measured 15 mins after LPS addition by Western blot; format: protein assay
PBMC [3] = assay: Antiinflammatory activity in human PBMC assessed as inhibition of 1 ng/ml LPS-induced TNFalpha release at 140 uM pretreated 24 hrs before inducer-challenge measured 24 hrs after LPS addition by ELISA; format: functional
PBMC [4] = assay: Antiinflammatory activity in human PBMC assessed as inhibition of 10 ng/ml LPS-induced TNFalpha release at 140 uM pretreated 24 hrs before inducer-challenge measured 24 hrs after LPS addition by ELISA; format: functional
[5] = target: Mitogen-activated protein kinase; ERK1/ERK2 (Homo sapiens) (UniProt P27361+P28482); assay: Inhibition of LPS-induced ERK1/2 phosphorylation in human PBMC at 140 uM pretreated 24 hrs before inducer-challenge measured 15 mins after LPS addition by Western blot; format: protein assay
PBMC [6] = assay: Antiinflammatory activity in human PBMC assessed as inhibition of 10 ng/ml LPS-induced TNFalpha release at 1.3 uM pretreated 24 hrs before inducer-challenge measured 24 hrs after LPS addition by ELISA; format: functional
PBMC [7] = assay: Antiinflammatory activity in human PBMC assessed as inhibition of 10 ng/ml LPS-induced TNFalpha release at 5.1 uM pretreated 24 hrs before inducer-challenge measured 24 hrs after LPS addition by ELISA; format: functional

Mitogen-activated protein kinase; ERK1/ERK2 (Homo sapiens), sequence (P27361 whole entry, looked up): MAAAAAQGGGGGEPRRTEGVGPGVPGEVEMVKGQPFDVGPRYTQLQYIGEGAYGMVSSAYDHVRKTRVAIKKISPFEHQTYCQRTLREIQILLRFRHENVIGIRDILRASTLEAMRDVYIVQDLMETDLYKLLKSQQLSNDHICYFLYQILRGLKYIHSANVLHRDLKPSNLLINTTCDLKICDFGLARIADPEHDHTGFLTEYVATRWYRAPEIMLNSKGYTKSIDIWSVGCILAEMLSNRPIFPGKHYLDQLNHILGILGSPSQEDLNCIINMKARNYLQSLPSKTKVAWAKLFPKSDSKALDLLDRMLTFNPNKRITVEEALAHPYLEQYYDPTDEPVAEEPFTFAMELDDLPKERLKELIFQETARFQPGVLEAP
Mitogen-activated protein kinase; ERK1/ERK2 (Homo sapiens), sequence (P28482 whole entry, looked up): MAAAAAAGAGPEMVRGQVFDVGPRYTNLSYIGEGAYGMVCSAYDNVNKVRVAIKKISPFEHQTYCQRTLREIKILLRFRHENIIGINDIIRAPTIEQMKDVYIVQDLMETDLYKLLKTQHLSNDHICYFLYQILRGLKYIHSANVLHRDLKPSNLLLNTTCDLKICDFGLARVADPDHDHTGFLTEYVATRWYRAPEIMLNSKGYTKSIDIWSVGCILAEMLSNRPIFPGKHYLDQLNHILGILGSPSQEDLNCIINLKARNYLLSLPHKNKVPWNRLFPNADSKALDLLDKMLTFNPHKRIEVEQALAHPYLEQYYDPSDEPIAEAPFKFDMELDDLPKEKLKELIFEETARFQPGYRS

inhibition [2]	inhibition [5]	SMILES	inhibition (PBMC [1])	inhibition (INH) (PBMC [3])	inhibition (INH) (PBMC [4])	inhibition (INH) (PBMC [6])	inhibition (INH) (PBMC [7])
inactive	Active	COc1ccc(/C=C/C(=O)OCC(=O)Cc2ccc(O)c(O)c2)cc1O [CIMIRACEMATE A]	Active	47%	58%		
		C[C@@H]1C[C@H]2[C@@H]3CCC4=CC(=O)C=C[C@]4(C)[C@@]3(F)[C@@H](O)C[C@]2(C)[C@@]1(O)C(=O)CO [DEXAMETHASONE]				32%	25%
